# Results from ChEMBL document CHEMBL1145307, “Design and synthesis of tetracyclic nonpeptidic biaryl nitrile inhibitors of cathepsin K” (Bioorg Med Chem Lett, 2006).
# Target: T1, Cathepsin K (Homo sapiens, UniProt P43235)
# T1 sequence (P43235 whole entry): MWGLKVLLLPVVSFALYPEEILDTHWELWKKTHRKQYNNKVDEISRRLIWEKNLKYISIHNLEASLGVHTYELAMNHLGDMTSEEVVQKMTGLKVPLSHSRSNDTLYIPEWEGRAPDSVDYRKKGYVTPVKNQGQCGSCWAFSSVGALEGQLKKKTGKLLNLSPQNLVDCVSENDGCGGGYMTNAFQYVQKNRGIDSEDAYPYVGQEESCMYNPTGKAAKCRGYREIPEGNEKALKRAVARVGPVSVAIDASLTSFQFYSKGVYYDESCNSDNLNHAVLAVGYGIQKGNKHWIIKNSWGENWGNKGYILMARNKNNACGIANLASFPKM
# Assay: Inhibition of human cathepsin K
# Settings: not given
row,Ki [µM],SMILES
1,0.0008,CC(C)CC(C(=O)NCC#N)c1cccc(-c2cccc(-c3csc(N4CCNCC4)n3)c2)c1 (racemic)
2,0.0035,CC(C)CC(C(=O)NCC#N)c1cccc(-c2ccc(-c3csc(N4CCNCC4)n3)cc2)c1 (racemic)
3,0.003,CC(C)C[C@@H](C(=O)NCC#N)c1cccc(-c2cccc(-c3csc(N4CCC(N(C)C)C4)n3)c2)c1 (stereo not given in full)

# System: not listed separately
# Assay: Mean residence time in rat at 0.5 mg/kg, iv
# Format: ADME, organism-based
# Parameters: dose 0.5 mg/kg, route intravenous
# Settings: in vivo
row,MRT [h],SMILES
1,2.93,CC(C)CC(C(=O)NCC#N)c1cccc(-c2cccc(-c3csc(N4CCNCC4)n3)c2)c1 (racemic)
2,1.77,CC(C)CC(C(=O)NCC#N)c1cccc(-c2ccc(-c3csc(N4CCNCC4)n3)cc2)c1 (racemic)

# System: not listed separately
# Assay: Clearance in rat at 0.5 mg/kg, iv
# Format: ADME, organism-based
# Parameters: dose 0.5 mg/kg, route intravenous
# Settings: in vivo
row,clearance [L/h/kg],SMILES
1,1.5,CC(C)CC(C(=O)NCC#N)c1cccc(-c2cccc(-c3csc(N4CCNCC4)n3)c2)c1 (racemic)
2,6.84,CC(C)CC(C(=O)NCC#N)c1cccc(-c2ccc(-c3csc(N4CCNCC4)n3)cc2)c1 (racemic)

# System: Rattus norvegicus
# Assay: Cmax in rat at 10 mg/kg, po
# Format: ADME, organism-based
# Parameters: dose 10 mg/kg, route oral
# Settings: in vivo
row,Cmax [µM],SMILES
1,1.1,CC(C)CC(C(=O)NCC#N)c1cccc(-c2cccc(-c3csc(N4CCNCC4)n3)c2)c1 (racemic)

# System: Rattus norvegicus
# Assay: Tmax in rat at 10 mg/kg, po
# Format: ADME, organism-based
# Parameters: dose 10 mg/kg, route oral
# Settings: in vivo
row,Tmax [h],SMILES
1,3.33,CC(C)CC(C(=O)NCC#N)c1cccc(-c2cccc(-c3csc(N4CCNCC4)n3)c2)c1 (racemic)

# System: Rattus norvegicus
# Assay: AUC in rat at 10 mg/kg, po
# Format: ADME, organism-based, Plasma
# Parameters: dose 10 mg/kg, route oral
# Settings: in vivo
row,AUC [µM·min],SMILES
1,560,CC(C)CC(C(=O)NCC#N)c1cccc(-c2cccc(-c3csc(N4CCNCC4)n3)c2)c1 (racemic)

# System: Rattus norvegicus
# Assay: Half life in rat at 10 mg/kg, po
# Format: ADME, organism-based
# Parameters: dose 10 mg/kg, route oral
# Settings: in vivo
row,T1/2 [h],SMILES
1,3.9,CC(C)CC(C(=O)NCC#N)c1cccc(-c2cccc(-c3csc(N4CCNCC4)n3)c2)c1 (racemic)

# System: not listed separately
# Assay: Oral bioavailability in rat at 10 mg/kg, po
# Format: ADME, organism-based
# Settings: in vivo
row,bioavailability [%],SMILES
1,85,CC(C)CC(C(=O)NCC#N)c1cccc(-c2cccc(-c3csc(N4CCNCC4)n3)c2)c1 (racemic)

# System: not listed separately
# Assay: Volume of distribution in rat at 0.5 mg/kg, iv
# Format: ADME, organism-based
# Parameters: dose 0.5 mg/kg, route intravenous
# Settings: in vivo, read-out: Vss
row,Vd [L/kg],SMILES
1,4.3,CC(C)CC(C(=O)NCC#N)c1cccc(-c2cccc(-c3csc(N4CCNCC4)n3)c2)c1 (racemic)
2,12,CC(C)CC(C(=O)NCC#N)c1cccc(-c2ccc(-c3csc(N4CCNCC4)n3)cc2)c1 (racemic)

# Target: Procathepsin L (Homo sapiens, UniProt P07711)
# Assay: Inhibition of human cathepsin L
# Settings: not given
# Chain of Procathepsin L (P07711 whole entry): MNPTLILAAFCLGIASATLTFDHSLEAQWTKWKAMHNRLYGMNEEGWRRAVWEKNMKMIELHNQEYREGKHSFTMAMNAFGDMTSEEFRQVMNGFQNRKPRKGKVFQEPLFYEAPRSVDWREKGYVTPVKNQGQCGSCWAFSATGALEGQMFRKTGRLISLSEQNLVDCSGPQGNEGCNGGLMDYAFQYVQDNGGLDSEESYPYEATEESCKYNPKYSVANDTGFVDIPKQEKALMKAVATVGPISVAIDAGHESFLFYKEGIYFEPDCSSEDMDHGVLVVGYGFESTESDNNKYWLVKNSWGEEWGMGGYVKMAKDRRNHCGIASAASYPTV
row,Ki [µM],SMILES
1,0.19,CC(C)CC(C(=O)NCC#N)c1cccc(-c2cccc(-c3csc(N4CCNCC4)n3)c2)c1 (racemic)
2,2.5,CC(C)CC(C(=O)NCC#N)c1cccc(-c2ccc(-c3csc(N4CCNCC4)n3)cc2)c1 (racemic)
3,0.54,CC(C)C[C@@H](C(=O)NCC#N)c1cccc(-c2cccc(-c3csc(N4CCC(N(C)C)C4)n3)c2)c1 (stereo not given in full)

# Target: Cathepsin B (Homo sapiens, UniProt P07858)
# Assay: Inhibition of human cathepsin B
# Settings: not given
row,Ki [µM],SMILES
1,18,CC(C)CC(C(=O)NCC#N)c1cccc(-c2cccc(-c3csc(N4CCNCC4)n3)c2)c1 (racemic)
2,12,CC(C)CC(C(=O)NCC#N)c1cccc(-c2ccc(-c3csc(N4CCNCC4)n3)cc2)c1 (racemic)
3,51,CC(C)C[C@@H](C(=O)NCC#N)c1cccc(-c2cccc(-c3csc(N4CCC(N(C)C)C4)n3)c2)c1 (stereo not given in full)

# Target: Cathepsin S (Homo sapiens, UniProt P25774)
# Assay: Inhibition of human cathepsin S
# Settings: not given
# Chain of Cathepsin S (P25774 whole entry): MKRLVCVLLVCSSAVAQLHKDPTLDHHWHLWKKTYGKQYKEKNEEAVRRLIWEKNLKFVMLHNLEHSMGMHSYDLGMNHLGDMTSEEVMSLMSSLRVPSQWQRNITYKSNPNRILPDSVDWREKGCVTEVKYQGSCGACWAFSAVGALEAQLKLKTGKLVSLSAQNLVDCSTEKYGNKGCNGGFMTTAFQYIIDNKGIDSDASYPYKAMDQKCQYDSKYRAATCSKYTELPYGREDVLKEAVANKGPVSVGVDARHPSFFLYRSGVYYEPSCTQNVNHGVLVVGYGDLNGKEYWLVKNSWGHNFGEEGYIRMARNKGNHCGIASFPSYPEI
row,Ki [µM],SMILES
1,5.6,CC(C)CC(C(=O)NCC#N)c1cccc(-c2cccc(-c3csc(N4CCNCC4)n3)c2)c1 (racemic)
2,9.5,CC(C)CC(C(=O)NCC#N)c1cccc(-c2ccc(-c3csc(N4CCNCC4)n3)cc2)c1 (racemic)
3,3.6,CC(C)C[C@@H](C(=O)NCC#N)c1cccc(-c2cccc(-c3csc(N4CCC(N(C)C)C4)n3)c2)c1 (stereo not given in full)

# System: Osteoclast
# Assay: Effect on degradation of bovine bone by rabbit osteoclast
# Format: functional, cell-based
# Settings: Oryctolagus cuniculus
row,IC50 [µM],SMILES
1,0.349,CC(C)CC(C(=O)NCC#N)c1cccc(-c2cccc(-c3csc(N4CCNCC4)n3)c2)c1 (racemic)
2,0.012,CC(C)CC(C(=O)NCC#N)c1cccc(-c2ccc(-c3csc(N4CCNCC4)n3)cc2)c1 (racemic)
3,0.172,CC(C)C[C@@H](C(=O)NCC#N)c1cccc(-c2cccc(-c3csc(N4CCC(N(C)C)C4)n3)c2)c1 (stereo not given in full)

# Target: Cathepsin (L and K) (Homo sapiens) (UniProt P43235+P07711)
# Assay: Selectivity for cathepsin L over cathepsin K
# Format: protein assay
# Settings: not given
row,Selectivity ratio,SMILES
1,237,CC(C)CC(C(=O)NCC#N)c1cccc(-c2cccc(-c3csc(N4CCNCC4)n3)c2)c1 (racemic)
2,714,CC(C)CC(C(=O)NCC#N)c1cccc(-c2ccc(-c3csc(N4CCNCC4)n3)cc2)c1 (racemic)
3,180,CC(C)C[C@@H](C(=O)NCC#N)c1cccc(-c2cccc(-c3csc(N4CCC(N(C)C)C4)n3)c2)c1 (stereo not given in full)

# Target: Cathepsin (B and K) (Homo sapiens) (UniProt P43235+P07858)
# Assay: Selectivity for cathepsin B over cathepsin K
# Format: protein assay
# Settings: not given
row,Selectivity ratio,SMILES
1,22500,CC(C)CC(C(=O)NCC#N)c1cccc(-c2cccc(-c3csc(N4CCNCC4)n3)c2)c1 (racemic)
2,3430,CC(C)CC(C(=O)NCC#N)c1cccc(-c2ccc(-c3csc(N4CCNCC4)n3)cc2)c1 (racemic)
3,17000,CC(C)C[C@@H](C(=O)NCC#N)c1cccc(-c2cccc(-c3csc(N4CCC(N(C)C)C4)n3)c2)c1 (stereo not given in full)

# Target: Cathepsin (S and K) (Homo sapiens) (UniProt P25774+P43235)
# Assay: Selectivity for cathepsin S over cathepsin K
# Format: protein assay
# Settings: not given
row,Selectivity ratio,SMILES
1,7000,CC(C)CC(C(=O)NCC#N)c1cccc(-c2cccc(-c3csc(N4CCNCC4)n3)c2)c1 (racemic)
2,2710,CC(C)CC(C(=O)NCC#N)c1cccc(-c2ccc(-c3csc(N4CCNCC4)n3)cc2)c1 (racemic)
3,1200,CC(C)C[C@@H](C(=O)NCC#N)c1cccc(-c2cccc(-c3csc(N4CCC(N(C)C)C4)n3)c2)c1 (stereo not given in full)
